The target of the experiment is wt human LRRK2, catalytic site (Homo sapiens (Human), UniProt Q5S007). The experiment can be described thus: TR-FRET LanthaScreen Tb Kinase Activity Assay (LRRK2 kinase inhibition). Particulars: 2 nM wt human LRRK2, 400 nM fluorescein-ERM (LRRKtide) peptide, 38 μM ATP, 120 minutes at room temperature. The format is biochemical. The method, boiled down: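 LanthaScreen TR-FRET with 2 nM wt human LRRK2 catalytic site, 400 nM fluorescein-ERM (LRRKtide) peptide and 38 µM ATP in Kinase Buffer A; 120 min at room temperature. Phosphorylation detected with EDTA and Tb-anti-pLRRKtide after 60 min; IC50 from emission ratios.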
In general terms: In TR-FRET formats the signal depends on donor and acceptor labels being close together.

wt human LRRK2, catalytic site, sequence (Q5S007 1879-2138): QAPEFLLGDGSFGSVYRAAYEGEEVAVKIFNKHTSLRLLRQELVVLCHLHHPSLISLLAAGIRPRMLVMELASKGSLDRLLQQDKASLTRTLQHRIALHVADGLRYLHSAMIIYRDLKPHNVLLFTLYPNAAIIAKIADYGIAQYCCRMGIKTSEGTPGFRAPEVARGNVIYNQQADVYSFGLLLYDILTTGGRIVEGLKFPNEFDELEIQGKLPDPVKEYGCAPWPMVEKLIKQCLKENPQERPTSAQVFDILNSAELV

`CC(C)(C#N)Cn1ncc2c(Nc3ncc(C(F)(F)F)c(NC4CC4)n3)cccc21` [Example 200, 3-[4-[[4-(cyclopropylamino)-5-(trifluoromethyl)pyrimidin-2-yl]amino]indazol-1-yl]-2,2-dimethyl-propanenitrile]: the 50% inhibitory concentration (IC50) was < 50 nM.
Consider `CC(C)(O)Cn1ncc2c(Nc3ncc(C(F)(F)F)c(NC4CC4)n3)ccnc21` [Example 201, 1-(4-((4-(cyclopropylamino)-5-(trifluoromethyl)pyrimidin-2-yl)amino)-1H-pyrazolo[3,4-b]pyridin-1-yl)-2-methylpropan-2-ol], for which the IC50 is < 50 nM.
Then `CNc1nc(Nc2cccc3c2cnn3C(C)(C)C#N)nc2[nH]cnc12` [Example 202, 2-methyl-2-[4-[[6-(methylamino)-9H-purin-2-yl]amino]indazol-1-yl]propanenitrile], with < 50 nM.
Take `CS(=O)(=O)CCn1ncc2c(Nc3nc(NC4CC4)c4c(Cl)c[nH]c4n3)cccc21` [Example 203, 5-chloro-N^4-cyclopropyl-N^2-(1-(2-(methylsulfonyl)ethyl)-1H-indazol-4-yl)-7H-pyrrolo[2,3-d]pyrimidine-2,4-diamine]: the IC50 is < 50 nM.
Then `Cc1n[nH]c2nc(Nc3cccc4c3cnn4CC(C)(C)O)nc(NC3CC3)c12` [Example 204, 1-[4-[[4-(cyclopropylamino)-3-methyl-1H-pyrazolo[3,4-d]pyrimidin-6-yl]amino]indazol-1-yl]-2-methyl-propan-2-ol], with < 50 nM; and `CCNc1nc(Nc2ccc(F)c3c2cnn3CC(C)(C)O)nc2[nH]nc(C)c12` [Example 205, 1-[4-[[4-(ethylamino)-3-methyl-1H-pyrazolo[3,4-d]pyrimidin-6-yl]amino]-7-fluoro-indazol-1-yl]-2-methyl-propan-2-ol], with < 50 nM.

By IC50 is commonly meant the midpoint of a concentration-inhibition curve. Low values mean greater potency in that assay, high ones weaker potency in that assay.

The values are drawn from patent publication US20240174647A1 (NEURON23, INC., priority 2022, published 2024).
